Results reported in patent US20120302636A1, “METHOD OF TREATING A DISORDER ASSOCIATED WITH MTP” (priority 2009, published 2012).
Entries after “also recorded” stand apart in the source; their conditions may differ.

Key:
[1] = system: serum lipid levels; assay: Example 2: serum lipid levels; format: in vivo, human
Experimental: (§1) Each tablet contained 5 mg (BID), 10 mg (QD), 20 mg (QD), or 30 mg (QD).

[2] = Example 8: safety; format: in vivo, human
Excerpt: The study had 180 participants.

[3] = Example 6: ascending dose study in healthy males and HTG patients, safety; format: in vivo
Excerpt: Originally, the study was planned as 4 sequential cohorts of healthy male Caucasian subjects (Cohorts 1 to 4) followed by a cohort of male Caucasian patients with elevated triglycerides (HTG patients, Cohort 5). An additional cohort of healthy male Caucasian subjects (Cohort 4.1) was enrolled into the study (6 cohorts in total). The cohorts were as follows: Cohorts 1 to 4.1 had healthy Caucasian males, aged 18-45 years with a body weight of 60-100 kg and body mass index (BMI) between 19-28 kg/m^2 at screening and fasting triglycerides less than 1.69 mmol/L (less than 150 mg/dL) at the screening visit and Day-3. Cohort 5 had Caucasian males, aged 18-50 years with a body weight of 60-115 kg and BMI less than 35 kg/m^2 at screening and with elevated fasting triglycerides (TG≧1.69 mmol/L and <5.62 mmol/L; ≧150 mg/dL and <500 mg/dL) at the screening visit and Day-3.
The planned treatment for Cohorts 1 to 4 was twice daily administration of 5 mg, 10 mg or 15 mg the compound of formula (I)/placebo, or once daily administration of 30 mg the compound of formula (1)/placebo. […] As only the compound of formula (I) 5 mg capsules were supplied for this study, doses were administered once daily to determine the maximum tolerated dose, and the planned doses for each subsequent cohort were amended based on the safety and tolerability data obtained from the preceding cohort. The dose level and dosing schedule planned for the patients in Cohort 5 was determined by the maximum tolerated dose and dosing schedule as reported from the planned Cohorts 1 to 4.1.
Twelve healthy male Caucasian subjects were enrolled in each of Cohorts 1 to 4.1; dose cohorts were randomized in a ratio 9:3 to receive the compound of formula (I) or placebo, respectively, at the dose level associated with that cohort. Twelve male Caucasian patients with elevated triglycerides were randomized in a ratio of 8:4 to receive the compound of formula (I) or placebo, respectively, at the maximum tolerated dose level and dosing schedule.
This study was conducted to investigate the safety and tolerability of the compound of formula (I) and to determine the pharmacokinetic and pharmacodynamic profiles of the compound of formula (I) administered, either once or twice a day, for 14 days to healthy non-fasting male Caucasian subjects and male Caucasian HTG patients. The planned treatment for Cohorts 1 to 4 was twice daily administration of 5 mg, 10 mg or 15 mg the compound of formula (I)/placebo, or once daily administration of 30 mg the compound of formula (I)/placebo. […] Consequently, doses were administered once daily to healthy volunteers, and the planned doses for each subsequent cohort were amended based on the safety and tolerability data obtained from the preceding cohort.

[4] = Example 1: repeated oral dose study of capsules, safety
Experimental: The subjects were divided into two dosing groups, and within each dosing group, the subjects were divided as follows: 6 subjects received the compound of formula (1) and 3 subjects received placebo. […] Subjects were in a fed condition prior to administration of each capsule.
Each active capsule contained a filling solution and a gelatin solution. The filling solution comprised the compound of formula (I) (5 mg), propylene glycol esters of fatty acids, and dehydrated ethanol. The gelatin solution comprised purified water, gelatin, and anhydrized liquid sorbitol. The filling solution and gelatin solution were prepared individually and combined to form a soft capsule. The placebo capsules were prepared in a similar manner except that the filling solution contained only propylene glycol esters of fatty acids and dehydrated ethanol.

[5] = system: serum lipid levels; assay: Example 7: serum lipid levels; format: in vivo, human
Experimental: Postprandial levels of lipid parameters after administration of the compound of formula (I) were evaluated using the change from preceding timepoint. […] Intraday changes and changes from pretreatment baseline also indicate that the absorption of TG, VLDL-TG, and chylomicron-TG were delayed compared to placebo. This delayed absorption is consistent with a previous pharmacology study in healthy male Japanese subjects. The postprandial results were interpreted with caution as the delay in absorption can impact the calculation regarding the magnitude of the postprandial change in triglycerides. However, the suppression of the expected increases in postprandial TG, VLDL-TG, and chylomicron-TG, which is indicative of MTP inhibition, clearly supports the mechanism of action of the compound of formula (I). The VLDL-TG changes observed in this study are consistent with previous studies (Examples 2 and 6) where the compound of formula (I) was administered for up to 14 days in healthy or hypertriglyceridemic Caucasian and Japanese male subjects. In general, the compound of formula (I) levels were also low or non-quantifiable in these studies. […] Therefore, the compound of formula (I) is not believed to directly affect the liver.

[6] = Earlier phase 1 single dose clinical study; format: in vivo, human
[7] = Example 2: repeated oral dose study of tablets QD or BID, safety; format: in vivo, human
Experimental: as §1

CCOC(=O)C(COC(=O)Cc1ccc(NC(=O)c2ccccc2-c2ccc(C(F)(F)F)cc2)c(C(=O)N(C)C)c1)(C(=O)OCC)c1ccccc1 [compound of formula (I), diethyl 2-((2-(3-(dimethylcarbamoyl)-4-(4′-(trifiuoromethyl)biphenyl-2-ylcarboxamido)phenyl)acetoxy)methyl)-2-phenyl malonate]
postprandial elevations for TG, HDL-TG, LDL-TG, Midband-TG, VLDL-TG, CM-TG, and ApoB48 ([1]; active group): suppressed | TC, HDL-C, LDL-C, and ApoB values ([1]; by and after Day 7): decreased | incidence of drug-related decreased appetite ([2]; 1 mg BID): 4.4% | incidence of drug-related decreased appetite ([2]; 2.5 mg BID): 20.0% | subjects prematurely discontinued due to diarrhea ([2]; 2.5 mg BID): 1 subject | incidence of drug-related decreased appetite ([2]; 3.5 mg BID): 22.2% | subjects prematurely discontinued due to diarrhea ([2]; 3.5 mg BID): 2 subject | tolerability ([2]; 1 to 3.5 mg BID, 12 weeks): generally well tolerated | fat-soluble vitamins or coagulation factors ([2]; in vivo): no clinically significant changes | liver function parameters (AST, ALT, alkaline phosphatase) PCS values ([2]; in vivo): no subject had a PCS value | subjects withdrawn due to adverse events ([3]; 5 mg BID, Cohort 1): 5 subjects | tolerability ([3]; 5 mg BID, HTG patients, Cohort 5): reasonably well tolerated | tolerability ([3]; 5 mg BID, healthy subjects, Cohort 1): poorly tolerated; also recorded: not well tolerated | subjects reporting treatment-emergent adverse events ([3]; HTG patients receiving compound, Cohort 5): 88 % of treatment group | safety analyses (liver MRIs, tryptase, fat soluble vitamins, fecal fat) ([3]; any cohort): no clinically relevant findings | subjects reporting treatment-emergent adverse events ([3]; healthy subjects receiving compound): 76 % of treatment group | tolerability ([3]; healthy subjects, Cohorts 2 (5 mg QD), 3 (10 mg QD), 4 (15 mg QD), 4.1 (20 mg QD)): reasonably well-tolerated | fatty liver (liver MRI) ([3]; human, in vivo): without the presence of fatty liver | renal function tests ([3]; human, in vivo): did not suggest drug-related nephrotoxicity or hyperglycaemia | number of adverse events ([4]; 5 mg group): 12 | subjects with adverse events (incidence) ([4]; 5 mg group): 83% | vitamins A and E ([4]; 15 mg BID group): Decreased | number of adverse events ([4]; 15 mg group): 32 | subjects with adverse events (incidence) ([4]; 15 mg group): 100% | subjects with diarrhea ([4]; 15 mg group, of 6 subjects): 6 subjects | death or serious adverse events ([4]; 5 or 15 mg BID after meals, 14 days, capsules): neither death nor serious adverse events were reported | incidence of ALT increased ([4]; active group): 17% | incidence of abdominal discomfort ([4]; active group): 25% | incidence of anorexia ([4]; active group): 42% | incidence of diarrhea ([4]; active group): 67% | incidence of gastrointestinal disorders (SOC) ([4]; active group): 75% | incidence of investigations (SOC) ([4]; active group): 33% | incidence of metabolism and nutrition disorders (SOC) ([4]; active group): 42% | incidence of moderate abdominal discomfort ([4]; active group): 8% | incidence of moderate diarrhea ([4]; active group): 58% | incidence of moderate feeling queasy ([4]; active group): 8% | incidence of moderate stomach discomfort ([4]; active group): 8% | incidence of stomach discomfort ([4]; active group): 58% | subjects with adverse events (incidence) ([4]; active group (5 and 15 mg BID), 12 subjects): 92% | number of adverse events ([4]; active group, 12 subjects): 44 | tolerable dosage ([4]; long-term treatment in outpatients): 5 mg BID | doses at which diarrhea occurred ([4]; repeated BID administration): ≥ 5 mg | postprandial estimates for TG, VLDL-TG, and chylomicron-TG ([5]; following breakfast and dinner): substantially lower when compared with placebo | decrease in HDL-C levels ([5]; in vivo): not as pronounced as LDL-C, nor was it statistically significant | pretreatment baseline adjusted values of TC, LDL-C, LDL-TG, ApoB, and phospholipids ([5]; in vivo): significant reduction | doses at which diarrhea was observed [6]: ≥ 60 mg | incidence of diarrhea ([7]; 5 mg BID): 100% | incidence of moderate diarrhea ([7]; 5 mg BID): 66.7% | incidence of vomiting (moderate) ([7]; 5 mg BID): 16.7% | number of diarrhea events ([7]; 5 mg BID): 7 | subjects with adverse events (incidence) ([7]; 5 mg BID): 100.0% | suitability as clinical dose for hyperlipidemic patients ([7]; 5 mg BID): inappropriate as a clinical dose | subjects with adverse events (incidence) ([7]; 10 mg QD): 50.0% | incidence of diarrhea ([7]; 20 mg QD): 16.7% | incidence of moderate diarrhea ([7]; 20 mg QD): 16.7% | number of diarrhea events ([7]; 20 mg QD): One | subjects with adverse events (incidence) ([7]; 20 mg QD): 66.7% | incidence of diarrhea ([7]; 30 mg QD): 66.7% | incidence of moderate diarrhea ([7]; 30 mg QD): 50.0% | number of diarrhea events ([7]; 30 mg QD): 4 | subjects with adverse events (incidence) ([7]; 30 mg QD): 66.7% | vitamin E levels ([7]; 30 mg QD): decreased on Day 7 | subjects with queasiness ([7]; 30 mg dose): 2 of 6 subjects | incidence of infection and infestation (SOC) ([7]; active group): 4.2% | incidence of investigation (SOC) ([7]; active group): 20.8% | incidence of metabolism and nutrition disorder (SOC) ([7]; active group): 4.2% | incidence of gastrointestinal disorder (SOC) ([7]; active group, 24 subjects): 58.3% | incidence of CK increased ([7]; overall compound group): 12.5% | incidence of abdomen enlarged feeling ([7]; overall compound group): 20.8% | incidence of diarrhea ([7]; overall compound group): 45.8% | incidence of loose stools ([7]; overall compound group): 20.8% | incidence of stomach discomfort ([7]; overall compound group): 25.0% | number of diarrhea events ([7]; overall compound group): Twelve | subjects with adverse events (incidence) ([7]; overall compound group, 24 subjects): 70.8% | fat-soluble vitamin levels ([7]; remaining groups (10 mg QD, 20 mg QD, 5 mg BID)): did not decrease | death or serious adverse events ([7]; tablets, 14 days): No death or other serious adverse events occurred
